How the values were obtained:
Assay type in all cases: functional
Bacillus cereus [1] = assay: Antibacterial activity against Bacillus cereus at 100 ug/ml after 24 hr by agar well diffusion method; details: read-out: IZ
Staphylococcus aureus [2] = assay: Antibacterial activity against Staphylococcus aureus isolated from minced cow meet at 100 ug/ml after 24 hr by agar well diffusion method; details: read-out: IZ
Escherichia coli [3] = assay: Antibacterial activity against Escherichia coli O157:H7 isolated from poultry at 100 ug/ml after 24 hr by agar well diffusion method; details: O157:H7, 24 h, read-out: IZ
Pseudomonas aeruginosa [4] = assay: Antibacterial activity against Pseudomonas aeruginosa minced cow meet at 100 ug/ml after 24 hr by agar well diffusion method; details: read-out: IZ
Aspergillus flavus [5] = assay: Antifungal activity against Aspergillus flavus at 100 ug/ml after 48 to 72 hr by agar well diffusion method; details: read-out: IZ
Salmonella typhimurium [6] = assay: Antibacterial activity against Salmonella enterica subsp. enterica serovar Typhimurium isolated from mastitic cow milk at 100 ug/ml after 24 hr by agar well diffusion method; details: read-out: IZ
Listeria monocytogenes [7] = assay: Antibacterial activity against Listeria monocytogenes isolated from mastitic cow milk at 100 ug/ml after 24 hr by agar well diffusion method; details: read-out: IZ
Candida albicans [8] = assay: Antifungal activity against Candida albicans at 100 ug/ml after 48 to 72 hr by agar well diffusion method; details: read-out: IZ
Candida albicans [9] = assay: Antifungal activity against Candida albicans at 25 ug/ml after 48 to 72 hr by agar well diffusion method; details: read-out: IZ
Aspergillus flavus [10] = assay: Antifungal activity against Aspergillus flavus at 25 ug/ml after 48 to 72 hr by agar well diffusion method; details: read-out: IZ
Staphylococcus aureus [11] = assay: Antibacterial activity against Staphylococcus aureus minced cow meet at 10 ug/ml after 24 hr by agar well diffusion method; details: read-out: IZ
Salmonella typhimurium [12] = assay: Antibacterial activity against Salmonella enterica subsp. enterica serovar Typhimurium isolated from mastitic cow milk at 10 ug/ml after 24 hr by agar well diffusion method; details: read-out: IZ
Pseudomonas aeruginosa [13] = assay: Antibacterial activity against Pseudomonas aeruginosa minced cow meet at 10 ug/ml after 24 hr by agar well diffusion method; details: read-out: IZ
Listeria monocytogenes [14] = assay: Antibacterial activity against Listeria monocytogenes isolated from mastitic cow milk at 10 ug/ml after 24 hr by agar well diffusion method; details: read-out: IZ
Escherichia coli [15] = assay: Antibacterial activity against Escherichia coli O157:H7 isolated from poultry at 10 ug/ml after 24 hr by agar well diffusion method; details: O157:H7, 24 h, read-out: IZ
Bacillus cereus [16] = assay: Antibacterial activity against Bacillus cereus at 10 ug/ml after 24 hr by agar well diffusion method; details: read-out: IZ

Cc1nn(-c2ccccc2)c2nc(S)nc(-c3ccc(Cl)cc3)c12
zone of inhibition at 100 µg/mL (Bacillus cereus [1]): 22 mm | zone of inhibition at 100 µg/mL (Staphylococcus aureus [2]): 18 mm | zone of inhibition at 100 µg/mL (Escherichia coli [3]): 0 mm | zone of inhibition at 100 µg/mL (Pseudomonas aeruginosa [4]): 24 mm | zone of inhibition at 100 µg/mL (Aspergillus flavus [5]): 0 mm | zone of inhibition at 100 µg/mL (Salmonella typhimurium [6]): 12 mm | zone of inhibition at 100 µg/mL (Listeria monocytogenes [7]): 24 mm | zone of inhibition at 100 µg/mL (Candida albicans [8]): 29 mm

Cc1nn(-c2ccccc2)c2nc(NN)nc(-c3ccc(Cl)cc3)c12
zone of inhibition at 100 µg/mL (Bacillus cereus [1]): 26 mm | zone of inhibition at 100 µg/mL (Staphylococcus aureus [2]): 16 mm | zone of inhibition at 100 µg/mL (Escherichia coli [3]): 10 mm | zone of inhibition at 100 µg/mL (Pseudomonas aeruginosa [4]): 16 mm | zone of inhibition at 100 µg/mL (Aspergillus flavus [5]): 0 mm | zone of inhibition at 100 µg/mL (Salmonella typhimurium [6]): 13 mm | zone of inhibition at 100 µg/mL (Listeria monocytogenes [7]): 16 mm | zone of inhibition at 100 µg/mL (Candida albicans [8]): 16 mm

Cc1nn(-c2ccccc2)c2nc(SCC(=O)Cl)nc(-c3ccc(Cl)cc3)c12
zone of inhibition at 100 µg/mL (Bacillus cereus [1]): 10 mm | zone of inhibition at 100 µg/mL (Staphylococcus aureus [2]): 14 mm | zone of inhibition at 100 µg/mL (Escherichia coli [3]): 9 mm | zone of inhibition at 100 µg/mL (Pseudomonas aeruginosa [4]): 22 mm | zone of inhibition at 100 µg/mL (Aspergillus flavus [5]): 9 mm | zone of inhibition at 100 µg/mL (Salmonella typhimurium [6]): 11 mm | zone of inhibition at 100 µg/mL (Listeria monocytogenes [7]): 29 mm | zone of inhibition at 100 µg/mL (Candida albicans [8]): 8 mm

COc1ccc(C(=O)CSc2nc(-c3ccc(Cl)cc3)c3c(C)nn(-c4ccccc4)c3n2)cc1
zone of inhibition at 100 µg/mL (Bacillus cereus [1]): 18 mm | zone of inhibition at 100 µg/mL (Staphylococcus aureus [2]): 16 mm | zone of inhibition at 100 µg/mL (Escherichia coli [3]): 16 mm | zone of inhibition at 100 µg/mL (Pseudomonas aeruginosa [4]): 18 mm | zone of inhibition at 100 µg/mL (Aspergillus flavus [5]): 12 mm | zone of inhibition at 100 µg/mL (Salmonella typhimurium [6]): 13 mm | zone of inhibition at 100 µg/mL (Listeria monocytogenes [7]): 14 mm | zone of inhibition at 100 µg/mL (Candida albicans [8]): 26 mm

Cc1nn(-c2ccccc2)c2c1C(c1ccc(Cl)cc1)n1c(s/c(=C\c3ccc(C#N)cc3)c1=O)=N2 (stereo not drawn)
zone of inhibition at 100 µg/mL (Bacillus cereus [1]): 22 mm | zone of inhibition at 100 µg/mL (Staphylococcus aureus [2]): 28 mm | zone of inhibition at 100 µg/mL (Escherichia coli [3]): 18 mm | zone of inhibition at 100 µg/mL (Pseudomonas aeruginosa [4]): 18 mm | zone of inhibition at 100 µg/mL (Aspergillus flavus [5]): 8 mm | zone of inhibition at 100 µg/mL (Salmonella typhimurium [6]): 15 mm | zone of inhibition at 100 µg/mL (Listeria monocytogenes [7]): 20 mm | zone of inhibition at 100 µg/mL (Candida albicans [8]): 9 mm

Cc1nn(-c2ccccc2)c2nc(-n3[nH]c(=O)c(C#N)c3-c3ccc(Cl)cc3)nc(-c3ccc(Cl)cc3)c12
zone of inhibition at 100 µg/mL (Bacillus cereus [1]): 24 mm | zone of inhibition at 100 µg/mL (Staphylococcus aureus [2]): 0 mm | zone of inhibition at 100 µg/mL (Escherichia coli [3]): 0 mm | zone of inhibition at 100 µg/mL (Pseudomonas aeruginosa [4]): 14 mm | zone of inhibition at 100 µg/mL (Aspergillus flavus [5]): 12 mm | zone of inhibition at 100 µg/mL (Salmonella typhimurium [6]): 9 mm | zone of inhibition at 100 µg/mL (Listeria monocytogenes [7]): 29 mm | zone of inhibition at 100 µg/mL (Candida albicans [8]): 24 mm

Cc1nn(-c2ccccc2)c2c1c(-c1ccc(Cl)cc1)nc1nncn12
zone of inhibition at 100 µg/mL (Bacillus cereus [1]): 22 mm | zone of inhibition at 100 µg/mL (Staphylococcus aureus [2]): 14 mm | zone of inhibition at 100 µg/mL (Escherichia coli [3]): 10 mm | zone of inhibition at 100 µg/mL (Pseudomonas aeruginosa [4]): 12 mm | zone of inhibition at 100 µg/mL (Aspergillus flavus [5]): 0 mm | zone of inhibition at 100 µg/mL (Salmonella typhimurium [6]): 13 mm | zone of inhibition at 100 µg/mL (Listeria monocytogenes [7]): 20 mm | zone of inhibition at 100 µg/mL (Candida albicans [8]): 18 mm

OC(Cn1cncn1)(Cn1cncn1)c1ccc(F)cc1F [FLUCONAZOLE]
zone of inhibition at 25 µg/mL (Candida albicans [9]): 17 mm | zone of inhibition at 25 µg/mL (Aspergillus flavus [10]): 16 mm

Cc1nn(-c2ccccc2)c2nc(-n3nc(N)c(C#N)c3-c3ccc(Cl)cc3)nc(-c3ccc(Cl)cc3)c12
zone of inhibition at 100 µg/mL (Bacillus cereus [1]): 12 mm | zone of inhibition at 100 µg/mL (Staphylococcus aureus [2]): 12 mm | zone of inhibition at 100 µg/mL (Escherichia coli [3]): 0 mm | zone of inhibition at 100 µg/mL (Pseudomonas aeruginosa [4]): 9 mm | zone of inhibition at 100 µg/mL (Aspergillus flavus [5]): 0 mm | zone of inhibition at 100 µg/mL (Salmonella typhimurium [6]): 9 mm | zone of inhibition at 100 µg/mL (Listeria monocytogenes [7]): 18 mm | zone of inhibition at 100 µg/mL (Candida albicans [8]): 9 mm

Cc1nn(-c2ccccc2)c2nc(-n3[nH]c(=O)c(C#N)c3-c3cccs3)nc(-c3ccc(Cl)cc3)c12
zone of inhibition at 100 µg/mL (Bacillus cereus [1]): 9 mm | zone of inhibition at 100 µg/mL (Staphylococcus aureus [2]): 14 mm | zone of inhibition at 100 µg/mL (Escherichia coli [3]): 0 mm | zone of inhibition at 100 µg/mL (Pseudomonas aeruginosa [4]): 14 mm | zone of inhibition at 100 µg/mL (Aspergillus flavus [5]): 12 mm | zone of inhibition at 100 µg/mL (Salmonella typhimurium [6]): 10 mm | zone of inhibition at 100 µg/mL (Listeria monocytogenes [7]): 32 mm | zone of inhibition at 100 µg/mL (Candida albicans [8]): 20 mm

Cc1nn(-c2ccccc2)c2nc(S)nc(-c3cccs3)c12
zone of inhibition at 100 µg/mL (Bacillus cereus [1]): 18 mm | zone of inhibition at 100 µg/mL (Staphylococcus aureus [2]): 14 mm | zone of inhibition at 100 µg/mL (Escherichia coli [3]): 14 mm | zone of inhibition at 100 µg/mL (Pseudomonas aeruginosa [4]): 16 mm | zone of inhibition at 100 µg/mL (Aspergillus flavus [5]): 10 mm | zone of inhibition at 100 µg/mL (Salmonella typhimurium [6]): 14 mm | zone of inhibition at 100 µg/mL (Listeria monocytogenes [7]): 16 mm | zone of inhibition at 100 µg/mL (Candida albicans [8]): 10 mm

NC[C@H]1O[C@H](O[C@H]2[C@H](O)[C@@H](O[C@H]3O[C@H](CO)[C@@H](O)[C@H](N)[C@H]3O)[C@H](N)C[C@@H]2N)[C@H](N)C[C@@H]1O [TOBRAMYCIN]
zone of inhibition at 10 µg/mL (Staphylococcus aureus [11]): 19 mm | zone of inhibition at 10 µg/mL (Salmonella typhimurium [12]): 18 mm | zone of inhibition at 10 µg/mL (Pseudomonas aeruginosa [13]): 18 mm | zone of inhibition at 10 µg/mL (Listeria monocytogenes [14]): 20 mm | zone of inhibition at 10 µg/mL (Escherichia coli [15]): 20 mm | zone of inhibition at 10 µg/mL (Bacillus cereus [16]): 19 mm

Reference: ChEMBL document CHEMBL3045647, “Synthesis, anti-microbial evaluation, and molecular modeling of new pyrazolo[3,4-d]pyrimidine derivatives” (2012)
